Assay results from ChEMBL document CHEMBL1136683, “Potent and selective aggrecanase inhibitors containing cyclic P1 substituents” (Bioorg Med Chem Lett, 2003).

Key:
[1] = molecular target: Matrix metalloproteinase-9 (Homo sapiens, UniProt P14780); assay: Affinity for Matrix metalloprotease-9 (MMP-9)
[2] = Inhibition of bovine aggrecanase; set-up: species or system Bos taurus
[3] = Tmax after peroral administration (10 mg/kg) was determined in rat; format: ADME, organism-based; settings: in vivo, po
[4] = Vss after intravenous administration (0.5 mg/kg) was determined in dog; format: ADME, organism-based, Canis lupus familiaris; settings: in vivo, read-out: Vss
[5] = Vss after intravenous administration (5.0 mg/kg) was determined in rat; format: ADME, organism-based; settings: in vivo, read-out: Vss
[6] = Systemic clearance after intravenous administration (5.0 mg/kg) was determined in rat; format: ADME, organism-based; settings: in vivo
[7] = Systemic clearance after intravenous administration (0.5 mg/kg) was determined in dog; format: ADME, organism-based, Canis lupus familiaris; settings: in vivo
[8] = Bioavailability after peroral administration (10 mg/kg) was determined in rat; format: ADME, organism-based; settings: in vivo, po
[9] = Tmax after peroral administration (1 mg/kg) was determined in dog; format: ADME, organism-based, Canis lupus familiaris; settings: in vivo, po
[10] = Half life time after intravenous administration (5.0 mg/kg) was determined in rat; format: ADME, organism-based; settings: in vivo
[11] = Half life time after intravenous administration (0.5 mg/kg) was determined in dog; format: ADME, organism-based, Canis lupus familiaris; settings: in vivo
[12] = Bioavailability after peroral administration (1 mg/kg) was determined in dog; format: ADME, organism-based, Canis lupus familiaris; settings: in vivo, po

Matrix metalloproteinase-9, sequence (P14780 whole entry): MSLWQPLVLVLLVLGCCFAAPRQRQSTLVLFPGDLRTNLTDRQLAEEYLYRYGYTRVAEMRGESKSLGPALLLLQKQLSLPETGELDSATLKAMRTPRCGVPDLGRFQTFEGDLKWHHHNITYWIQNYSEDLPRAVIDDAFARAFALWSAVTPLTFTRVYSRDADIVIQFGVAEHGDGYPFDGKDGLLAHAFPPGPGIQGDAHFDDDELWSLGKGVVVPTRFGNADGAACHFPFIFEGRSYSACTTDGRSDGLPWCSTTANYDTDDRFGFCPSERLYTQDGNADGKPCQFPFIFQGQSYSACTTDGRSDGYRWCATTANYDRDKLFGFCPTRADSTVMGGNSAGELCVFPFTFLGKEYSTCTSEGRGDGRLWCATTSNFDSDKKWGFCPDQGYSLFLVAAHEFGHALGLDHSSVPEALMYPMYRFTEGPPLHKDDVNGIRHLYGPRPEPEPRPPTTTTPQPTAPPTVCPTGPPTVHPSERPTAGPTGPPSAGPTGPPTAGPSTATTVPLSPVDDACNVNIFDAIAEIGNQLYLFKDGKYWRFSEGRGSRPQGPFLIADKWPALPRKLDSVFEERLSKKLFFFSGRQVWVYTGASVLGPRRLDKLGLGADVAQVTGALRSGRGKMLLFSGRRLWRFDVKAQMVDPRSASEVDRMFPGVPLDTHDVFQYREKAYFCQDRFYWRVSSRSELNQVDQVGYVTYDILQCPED

SMILES | Ki [1] [nM] | IC50 [2] [nM] | further results
CN1CCC([C@H](C(=O)NO)[C@@H](Cc2cccc(O)c2)C(=O)N[C@H]2c3ccccc3C[C@H]2O)CC1 | > 2130 | 210 | –
O=C(NO)[C@@H](NCC1CC1)[C@@H](Cc1cccc(O)c1)C(=O)N[C@H]1c2ccccc2C[C@H]1O | – | 12 | –
CS(=O)(=O)N1CCC([C@H](C(=O)NO)[C@@H](Cc2cccc(O)c2)C(=O)N[C@H]2c3ccccc3C[C@H]2O)CC1 | 2100 | 3 | –
O=C(N[C@H]1c2ccccc2C[C@H]1O)[C@H](Cc1cccc(O)c1)[C@@H](C(=O)NO)C1CCNCC1 | 4000 | 28 | Tmax [3]: 1.5 h; Vd [4]: 0.2 L/kg; Vd [5]: 0.3 L/kg; clearance [6]: 8.33 mL/min/kg; clearance [7]: 1.67 mL/min/kg; bioavailability [8]: 1%; Tmax [9]: 4.3 h; half-life [10]: 4 h; half-life [11]: 3.8 h; bioavailability [12]: 20%
O=C(N[C@H]1c2ccccc2C[C@H]1O)[C@H](Cc1cccc(O)c1)[C@@H](C(=O)NO)C1CN(C(=O)C(F)(F)F)C1 | 1490 | 3 | –
CC(C)(C)OC(=O)N1CCC([C@H](C(=O)O)C(Cc2cccc(O)c2)C(=O)N[C@H]2c3ccccc3C[C@H]2O)CC1 (stereo not given in full) | > 2130 | > 1000 | –
CCC(=O)N1CCC(C[C@H](C(=O)NO)[C@@H](Cc2cccc(O)c2)C(=O)N[C@H]2c3ccccc3C[C@H]2O)CC1 | > 2130 | 97 | –
O=C(N[C@H]1c2ccccc2C[C@H]1O)[C@H](Cc1cccc(O)c1)[C@@H](C(=O)NO)C1CNC1 | > 2130 | 7 | –
CC(C)(C)OC(=O)N1CCC([C@H](C(=O)NO)[C@@H](Cc2cccc(O)c2)C(=O)N[C@H]2c3ccccc3C[C@H]2O)CC1 | 1300 | 19 | –
CCOC(=O)N1CCC([C@H](C(=O)NO)[C@@H](Cc2cccc(O)c2)C(=O)N[C@H]2c3ccccc3C[C@H]2O)CC1 | 832 | 7 | –
CC(=O)N1CCC(C(C(=O)NO)C(Cc2cccc(O)c2)C(=O)N[C@H]2c3ccccc3C[C@H]2O)CC1 (single isomer, unassigned) | 1740 | 29 | –
CCN1CCC(C(C(=O)NO)C(Cc2cccc(O)c2)C(=O)N[C@H]2c3ccccc3C[C@H]2O)CC1 (single isomer, unassigned) | > 2130 | 45 | –
CC(=O)N1CCC(CC(C(=O)NO)C(Cc2cccc(O)c2)C(=O)N[C@H]2c3ccccc3C[C@H]2O)CC1 (single isomer, unassigned) | > 2130 | 114 | –
